“Also recorded” adds a separate entry of the source.
Assays:
[1] = system: KP lung tumor cells; test: Cell survival assay (MTS), KP cells; format: cell-based, mouse; settings: increasing concentrations of cisplatin alone or with 2nM 29P
Method: The lung adenocarcinoma cell line KP53 F1 was derived from lung tumors of C57BL/6 KP mice and was kindly provided by Dr. S A. Quezada, UCL Cancer Centre (University College London, UK).
(§1) A549 or KP cell survival was analyzed using the CellTiter96® Aqueous One Solution Reagent (Promega #G3582) according to the manufacturer's instructions. Briefly, 1000 cells were seeded into 96-well plated. Cells were treated the following day and the solution reagent was added after 72 hours of treatment. Plates were read using a wavelength of 490 nm.

[2] = system: human lung adenocarcinoma (A549) cells; test: Cell survival assay (MTS), A549 cells; format: cell-based; settings: increasing concentrations of cisplatin alone or with 2nM 29P
Method: A549 and LLC cells were purchased from ATCC. Mouse Lung Endothelial cells (EC) were obtained and cultured as previously described (34).
as §1

[3] = Side effects in C57/BL6 mice: body weight, lymphocytes, creatinine; format: in vivo, mouse; settings: Cis^3/anti-PD-1/anti-CTLA-4 and 29P, compared with Cis^6/anti-PD-1/anti-CTLA-4, placebo or single agent 29P
Method: FIG. 3 illustrates that 29P treatment sensitizes KP tumors to current immunotherapies and chemotherapies. […] (A, B, E) Representative images of hematoxylin-eosin stained lungs and quantification of number of tumor foci and tumor burden. […] (D) C57/BL6 mice were treated with Placebo, 29P, Cis^6/α-PD-1+α-CTLA-4 and Cis^3/α-PD-1+α-CTLA-4/29P. […] (F) Representative images of hematoxylin-eosin stained lungs (left) and quantification of mouse body weights and tumor burden (right). N.S. Not significant/p>0.05, *p<0.05, **p<0.01, ***p<0.001. (A,B,D-F) ordinary One-way ANOVA with Tukey's multiple comparison test, for not normally distributed data Kruskal-Wallis test with Dunn's multiple comparison test, (C) Mantel-Cox test, n=5-8 per treatment. Scale bars: 5 mm in H&E staining.

[4] = system: KP tumors; format: in vivo, mouse
Method: Kras^LSL-G12D/+; Trp53^flox/flox (referred to as KP) were used to generate lung adenocarcinomas by administering Ad-Cre (Cre recombinase Adenovirus) 5×10^7 PFU as previously described (DuPage et al, 2009; Cortez-Retamozo et al, 2013; Pfirsche et al, 2016).
CTLA-4 mAb (clone—9D9) (Bio X Cell) 100 μg/mouse was administered twice a week over 3 weeks. Rat IgG2a isotype control, anti-trinitrophenol (Clone 2A3) (Bio X Cell) 100 μg/mouse was administered twice a week during 3 weeks.
For VEGFR2 inactivation, KP mice were administered with anti-VEGFR2 (clone DC101, Bio X Cell) twice per week during three weeks.
In order to deplete CD8+ cells, KP mice were administered with anti-CD8α mAb intraperitoneally (clone YTS 169.4, BioXcell) twice per week after the first day of treatment and until the end of the experiments.
In order to deplete IFN-γ, KP mice were administered with anti-IFN-γ mAb intraperitoneally (XMG1.2, Bio X Cell) twice per week after the first day of treatment and until the end of the experiments. To deplete CXCL9, KP mice were administered with anti-CXCL9 mAb intraperitoneally (MIG-2F5.5, Bio X Cell) twice per week after the first day of treatment and until the end of the experiments. […]

[5] = system: KP tumor burdened lung; test: Flow cytometry of lungs bearing KP tumors; format: in vivo, mouse; settings: cisplatin treatment
Method: Tumors were minced and incubated at 37° C. for 20 min in an enzymatic cocktail containing DNase (0.5 mg/ml, Sigma). Liberase (2 mg/ml, Sigma) in HBSS (Sigma) was used to make a single cell suspension for pancreatic tumors. For breast tumors, collagenase/dispase (1 mg/ml, Sigma) in PBS, was used to make a single cell suspension. Cells were passed through a […] filter (BD Biosciences), washed in PBS supplemented with 2% foetal bovine serum and 2 mM EDTA, counted and used immediately for flow cytometry. Before cells were stained with specific antibodies, nonspecific binding sites were blocked with Fcγ R III/II TruStain fcX (93, Biolegend). Staining was performed in PBS supplemented with 2% foetal bovine serum and 2 mM EDTA. The following fluorochrome-conjugated antibodies were used: anti-CD45 (30-F11), anti-CD3 (145-2C11), anti-CD4 (L3T4), anti-CD8 (53-6.7), anti-CD69 (H1.2F3), anti-CD44 (IM7), anti-CD62L (MEL-14), anti-CD19 (6D5), anti-CD11b (M1/70), anti-F4/80 (BM8) from Biolegend; anti-PD1 (RMP1-30), anti-Gr1 (RB6-8C5) and anti-Ly6C (HK1.4) from eBioscience. Fixable viability dye (FVD) (eBioscience) was used to discriminate between live and dead cells. Acquisition and analyses were performed on a BD LSRII system using BD […] software (BD Biosciences). The percentage of cells were analysed using FlowJo software (version 10.0.8 tree Star). Dead cells were excluded from the analysis on the basis of FVD and SSC gating. Cell doublets were excluded from the analysis by gating for FSC area versus FSC width. CD45+ cells were used to include leukocytes only in the data analysis.

Compound | cisplatin cytotoxicity with 29P addition (MTS cell viability) [1] | cisplatin cytotoxicity with 29P addition (MTS cell viability) [2] | body weight [3] | creatinine levels [3] | lymphocyte numbers [3] | weight loss side effect ([4]; mouse, in vivo) | T cell (CD4+ and CD8+) numbers [5] | myeloid cell (Gr1+, Natural killer cells, dendritic cells, monocytes) numbers [5] | tumor associated macrophages [5] | anti-tumor effect ([4]; KP mice, Cis^6 (cisplatin 6 mg/kg) alone)
CCCCCCOC(=O)N=C(NCCC[C@@H]1NC(=O)[C@@H](C(C)C)N(C)C(=O)[C@H](C)N(C)C(=O)[C@H](C)NC(=O)[C@H](CC(=O)OC)NC(=O)CNC1=O)NC(=O)OCCCCCC [29P, c(*vR(Hoc)2GD(OMe)A*A)] | independent of 29P addition | independent of 29P addition | restored; also recorded: significantly improved parameters | restored; also recorded: significantly improved parameters | restored; also recorded: significantly improved parameters | without apparent adverse weight loss side effects |  |  |  | 
N.N.[Cl][Pt][Cl] [cisplatin] |  |  |  |  |  |  | increased | increased | a reduction | clear anti-tumor effect
